# Test results as given in paper PMC2361651 (British Journal of Cancer, 2005).
# Tests used:
# [1] = tested on: treatment refractory solid tumours; experiment: Tumour response (WHO response criteria); assay type: in vivo, human
# Excerpt: The study protocol was approved by the Research Ethics Committee of the Royal […] Trust. Written informed consent was obtained from all participants. All patients had treatment refractory solid tumours and were required to have at least one tumour deposit suitable for DCE-MRI evaluation. A suitable lesion had to be ⩾2 cm in size and in an anatomical position not subject to significant respiratory excursion. […] Exclusion criteria included patients with a known history of allergy to radiologic contrast agents or to Cremophor®; a Karnovsky performance status of <60%; a history of myocardial infarction, severe or unstable angina within 6 months of the study; diabetes mellitus with clinical evidence of severe peripheral vascular disease or ulceration; a medical condition or device implant that would interfere with or prevent MRI scans; or a serious concomitant medical condition that could interfere with the participation in the study or interpretation of study results.
# [2] = tested on: tumour vascular permeability; experiment: DCE-MRI of tumour vascular permeability; assay type: in vivo, human; details: for increase in leakage space (Ve): final scan (median 35 days), soft-tissue sarcoma patient
# Experimental: All patients were asked to have a baseline DCE-MRI examination within the 7 days prior to receiving the study compound under study conditions as described above. Follow-up scans were performed on day 1 and then after 4 weeks of therapy. After the first three patients' examination, the protocol was amended to day 1, 2 weeks, 6 weeks and 6 weekly thereafter if the patient remained on study. All examinations were performed on a 1.5 T MRI system (Vision, Siemens Medical Systems, Erlangen, Germany) approximately 4 h after the commencement of the treatment infusion.
# The image collection protocol comprised routine orthogonal T1- and T2-weighted images taken through the previously identified target lesion, to allow localisation and bi-dimensional tumour measurement. The dynamic imaging used a five-slice saturation recovery turbo fast low-angle shot sequence (SRTF) taken through the centre of the target lesion. Proton density-weighted images were acquired, followed by a series of T1-weighted images employing the same gain and image scaling factors. The sequential T1-weighted images were acquired every 9 s for 6.3 min (42 time points).
# Gadopentetate dimeglumine (Magnevist Schering Health Care Limited, Burgess Hill, Sussex, UK) was injected intravenously using a mechanical power injector, through a peripherally placed cannula. This contrast was administered as a bolus after the third baseline data point was acquired at a dose of 0.1 mmol kg^−1 body weight. The use of the mechanical power injector allowed the contrast to be delivered within 10 s. The contrast injection was followed by a 20 ml flush of normal saline.
# Using the resultant scanned images, two trained observers (AP, CH) blinded to the clinical outcome of the patients evaluated the patterns of enhancement within a designated region of interest. Contrast medium kinetic parameters were then derived for each pixel using MR Imaging Workbench software®. Quantitative and semiquantitative statistical analysis was then performed on these parameters using StatsDirect software (Research Solutions, Cambridge, UK).
# [3] = Phase I safety and tolerability, twice weekly intravenous infusion
# [4] = tested on: coagulation / fibrinolytic pathway; experiment: Coagulation parameters and expanded coagulation series in patients; assay type: in vivo, human
# Experimental: During the dose escalation stage of the protocol, a standard series of coagulation parameters (APPT, INR and fibrinogen) was explored at baseline prior to therapy and every 2 weeks thereafter. In the dose expansion phase of the protocol, in response to the clinical occurrence of two separate venous thrombotic episodes in study patients, an expanded coagulation series was performed.
# At each time point, blood was collected in citrated and EDTA tubes (Becton-Dickinson Vacutainer Systems, Europe). The samples from the citrated tubes were immediately centrifuged (at 4°C for 10 min at 3000 r.p.m.) supernatants pooled into inert plastic, centrifuged again (at 4°C, 10 min at 3000 r.p.m.) and the resultant sample stored in inert plastic tubes at −70°C until analysis. The sample taken into EDTA was centrifuged (at 4°C, for 10 min at 3000 r.p.m.), the supernatant decanted into inert plastic tubes and again stored at −70°C until analysis.
# [5] = human, in vivo
# [6] = tested on: KIT (the receptor for stem cell factor); set-up: method as in Antonian et al, 2000; Smolich et al, 2001; Yee et al, 2002; details: ref Antonian et al, 2000; Smolich et al, 2001; Yee et al, 2002; cited from earlier work
# [7] = 27 patients treated, two not evaluable
# [8] = mid-treatment (2 weeks), one patient, squamous cell carcinoma nasopharynx, 110 mg m^−2
smiles,measurement,setting,value
"Cc1cc(C)c(/C=C2\C(=O)Nc3ccccc32)[nH]1 [SU5416, Z-3-[(2,4-dimethylpyrrol-5-yl)methylidenyl]-2-indolinone]",patients with progressive disease as best response,[1]; [7],14 patients
same,patients with stable disease at 6 weeks,[1]; [7],12 patients
same,patients remaining on therapy for more than 12 weeks,"[1]; haemangioendothelioma, ovarian and adrenocortical carcinoma",three
same,increase in leakage space (Ve),[2]; 48 mg m^−2,36.5%
same,increase in leakage space (Ve),[2]; final expansion cohort,34.5%
same,change in Ktrans,"[2]; increase, day 1, one patient with metastatic melanoma (target lesion brain)",91%
same,change in Ktrans,[2]; [8],−51.9%
same,change in Ve,[2]; [8],−48.6%
same,"pain or burning discomfort in tumour-related sites shortly after infusion, patients",[3]; dose expansion cohort,three
same,"dysphonia, patients","[3]; therapy for 6 weeks or more, reversible over several months",Two
same,"Venous thrombotic events, patients","[3]; thrombosis of the inferior vena cava and a pulmonary embolism, differing dose levels",two
same,recommended dose for future study,[3]; twice weekly intravenous infusion,145 mg m^−2
same,maximum-tolerated dose,"[3]; twice weekly intravenous infusion, 48 to 190 mg m^−2",not identified
same,"change in INR, APTT or fibrinogen",[4]; baseline and every 2 weeks,No change
same,"reduction in plasmin–anti-plasmin complexes, median change","[4]; six patients, expanded panel",12.7 µg/L
same,"reduction in plasmin–anti-plasmin complexes, range of change","[4]; six patients, expanded panel",0 to 36 µg/L
same,"acute increase in plasminogen activator inhibitor (PAI-1) levels, median change","[4]; six patients, expanded panel, recovery at 24 h",37.3 IU
same,"Grade II hypersensitivity reactions, patients affected",[5],11 patients
same,inhibition of KIT,[6],potent competitive inhibitor
